Experimental data: the NIST ThermoML archive (doi:10.1016/j.jct.2013.03.013)
Where “and” joins values, the source holds several entries; their conditions need not be identical. Equal values may be shown once. ± gives the expanded uncertainty stated by the source.

Conditions: Liquid, Vibrating wire viscometry

FCC(F)(F)F [1,1,1,2-tetrafluoroethane]
viscosity
Conditions | 1000 kPa | 2000 kPa | 3000 kPa | 5000 kPa | 10000 kPa | 15000 kPa | 20000 kPa | 25000 kPa | 30000 kPa
253.14 K | 0.3564 ± 0.0086 mPa·s | – | – | 0.3729 ± 0.0089 mPa·s | 0.3937 ± 0.0093 mPa·s | 0.4141 ± 0.0097 mPa·s | 0.4329 ± 0.01 mPa·s | 0.4553 ± 0.01 mPa·s | 0.4776 ± 0.011 mPa·s
253.16 K | – | – | 0.3626 ± 0.0087 mPa·s | – | 0.3914 ± 0.0093 mPa·s | – | – | – | –
273.15 K | 0.2713 ± 0.007 mPa·s | – | 0.2791 ± 0.0072 mPa·s | 0.2873 ± 0.0073 mPa·s | 0.3052 ± 0.0077 mPa·s and 0.3031 ± 0.0076 mPa·s | 0.3211 ± 0.008 mPa·s | 0.3387 ± 0.0083 mPa·s | 0.357 ± 0.0086 mPa·s | 0.3759 ± 0.009 mPa·s
293.15 K | 0.2115 ± 0.006 mPa·s | – | 0.2177 ± 0.0061 mPa·s | 0.2227 ± 0.0062 mPa·s | 0.2398 ± 0.0065 mPa·s and 0.2412 ± 0.0065 mPa·s | 0.2556 ± 0.0068 mPa·s | 0.2725 ± 0.0071 mPa·s | 0.287 ± 0.0073 mPa·s | 0.3023 ± 0.0076 mPa·s
313.14 K | – | 0.1653 ± 0.0053 mPa·s | 0.1693 ± 0.0054 mPa·s | 0.1758 ± 0.0055 mPa·s | 0.1918 ± 0.0057 mPa·s and 0.1929 ± 0.0057 mPa·s | 0.2068 ± 0.006 mPa·s | 0.2228 ± 0.0062 mPa·s | 0.236 ± 0.0064 mPa·s | 0.2501 ± 0.0067 mPa·s
333.16 K | – | 0.1247 ± 0.0047 mPa·s | 0.1296 ± 0.0048 mPa·s | 0.1373 ± 0.0049 mPa·s | 0.1537 ± 0.0051 mPa·s and 0.1543 ± 0.0051 mPa·s | 0.1703 ± 0.0054 mPa·s | 0.1839 ± 0.0056 mPa·s | 0.1966 ± 0.0058 mPa·s | 0.2089 ± 0.006 mPa·s
353.15 K | – | – | – | 0.1034 ± 0.0044 mPa·s | 0.1246 ± 0.0047 mPa·s | – | – | – | –
353.16 K | – | – | 0.0916 ± 0.0043 mPa·s | 0.1032 ± 0.0044 mPa·s | 0.124 ± 0.0047 mPa·s | 0.1391 ± 0.0049 mPa·s | 0.1535 ± 0.0051 mPa·s | 0.1657 ± 0.0053 mPa·s | 0.1779 ± 0.0055 mPa·s

C=C(F)C(F)(F)F [2,3,3,3-tetrafluoro-1-propene]
Conditions | viscosity [mPa·s]
243.16 K, 99 kPa | 0.2892 ± 0.0074
243.16 K, 1000 kPa | 0.2913 ± 0.0074
243.16 K, 3000 kPa | 0.2982 ± 0.0075
243.16 K, 5000 kPa | 0.3049 ± 0.0077
243.16 K, 10000 kPa | 0.3212 ± 0.008
243.16 K, 15000 kPa | 0.3397 ± 0.0083
243.16 K, 20000 kPa | 0.3572 ± 0.0086
243.16 K, 25000 kPa | 0.3748 ± 0.0089
243.16 K, 30000 kPa | 0.3927 ± 0.0093
253.16 K, 151 kPa | 0.2554 ± 0.0068
253.16 K, 1000 kPa | 0.258 ± 0.0068
253.16 K, 3000 kPa | 0.2638 ± 0.0069
253.16 K, 5000 kPa | 0.2708 ± 0.007
253.16 K, 10000 kPa | 0.2877 ± 0.0073
253.16 K, 15000 kPa | 0.3038 ± 0.0076
253.16 K, 20000 kPa | 0.3201 ± 0.0079
253.16 K, 25000 kPa | 0.3362 ± 0.0082
253.16 K, 30000 kPa | 0.3517 ± 0.0085
263.16 K, 222 kPa | 0.2265 ± 0.0063
263.16 K, 1000 kPa | 0.229 ± 0.0063
263.16 K, 3000 kPa | 0.2355 ± 0.0064
263.16 K, 5000 kPa | 0.242 ± 0.0065
263.16 K, 10000 kPa | 0.2581 ± 0.0068
263.16 K, 15000 kPa | 0.2731 ± 0.0071
263.16 K, 20000 kPa | 0.2894 ± 0.0074
263.16 K, 25000 kPa | 0.3035 ± 0.0076
263.16 K, 30000 kPa | 0.3178 ± 0.0079
273.15 K, 316 kPa | 0.2019 ± 0.0059
273.15 K, 1000 kPa | 0.2033 ± 0.0059
273.15 K, 3000 kPa | 0.21 ± 0.006
273.15 K, 5000 kPa | 0.2162 ± 0.0061
273.15 K, 10000 kPa | 0.2313 ± 0.0064
273.15 K, 15000 kPa | 0.2457 ± 0.0066
273.15 K, 20000 kPa | 0.2601 ± 0.0069
273.15 K, 25000 kPa | 0.2744 ± 0.0071
273.15 K, 30000 kPa | 0.2874 ± 0.0073
283.14 K, 438 kPa | 0.1796 ± 0.0055
283.14 K, 1000 kPa | 0.1815 ± 0.0055
283.14 K, 3000 kPa | 0.1873 ± 0.0056
283.14 K, 5000 kPa | 0.194 ± 0.0057
283.14 K, 10000 kPa | 0.2079 ± 0.006
283.14 K, 15000 kPa | 0.2222 ± 0.0062
283.14 K, 20000 kPa | 0.2356 ± 0.0064
283.14 K, 25000 kPa | 0.2487 ± 0.0067
283.14 K, 30000 kPa | 0.262 ± 0.0069
293.15 K, 592 kPa | 0.1612 ± 0.0053
293.15 K, 1000 kPa | 0.1636 ± 0.0053
293.15 K, 3000 kPa | 0.169 ± 0.0054
293.15 K, 5000 kPa | 0.1755 ± 0.0055
293.15 K, 10000 kPa | 0.1885 ± 0.0057
293.15 K, 15000 kPa | 0.2018 ± 0.0059
293.15 K, 20000 kPa | 0.2152 ± 0.0061
293.15 K, 25000 kPa | 0.2287 ± 0.0063
293.15 K, 30000 kPa | 0.2414 ± 0.0065
303.15 K, 784 kPa | 0.1425 ± 0.005
303.15 K, 1000 kPa | 0.1434 ± 0.005
303.15 K, 3000 kPa | 0.149 ± 0.0051
303.15 K, 5000 kPa | 0.1554 ± 0.0051
303.15 K, 10000 kPa | 0.1696 ± 0.0054
303.15 K, 15000 kPa | 0.1834 ± 0.0056
303.15 K, 20000 kPa | 0.1965 ± 0.0058
303.15 K, 25000 kPa | 0.2092 ± 0.006
303.15 K, 30000 kPa | 0.2215 ± 0.0062
313.14 K, 1019 kPa | 0.1259 ± 0.0047
313.14 K, 3000 kPa | 0.1324 ± 0.0048
313.14 K, 5000 kPa | 0.1392 ± 0.0049
313.14 K, 10000 kPa | 0.1543 ± 0.0051
313.14 K, 15000 kPa | 0.1681 ± 0.0053
313.14 K, 20000 kPa | 0.1808 ± 0.0055
313.14 K, 25000 kPa | 0.1929 ± 0.0057
313.14 K, 30000 kPa | 0.2046 ± 0.0059
323.16 K, 1303 kPa | 0.1103 ± 0.0045
323.16 K, 3000 kPa | 0.1169 ± 0.0046
323.16 K, 5000 kPa | 0.1239 ± 0.0047
323.16 K, 10000 kPa | 0.1396 ± 0.0049
323.16 K, 15000 kPa | 0.1536 ± 0.0051
323.16 K, 20000 kPa | 0.1664 ± 0.0053
323.16 K, 25000 kPa | 0.1783 ± 0.0055
323.16 K, 30000 kPa | 0.1893 ± 0.0057
333.16 K, 1643 kPa | 0.0965 ± 0.0044
333.16 K, 3000 kPa | 0.1031 ± 0.0044
333.16 K, 5000 kPa | 0.1108 ± 0.0045
333.16 K, 10000 kPa | 0.127 ± 0.0047
333.16 K, 15000 kPa | 0.141 ± 0.0049
333.16 K, 20000 kPa | 0.1537 ± 0.0051
333.16 K, 25000 kPa | 0.1656 ± 0.0053
333.16 K, 30000 kPa | 0.1762 ± 0.0055
343.16 K, 2046 kPa | 0.0832 ± 0.0042
343.16 K, 3000 kPa | 0.0885 ± 0.0043
343.16 K, 5000 kPa | 0.0976 ± 0.0044
343.16 K, 10000 kPa | 0.115 ± 0.0046
343.16 K, 15000 kPa | 0.1291 ± 0.0048
343.16 K, 20000 kPa | 0.1417 ± 0.0049
343.16 K, 25000 kPa | 0.1534 ± 0.0051
343.16 K, 30000 kPa | 0.1644 ± 0.0053
353.16 K, 2521 kPa | 0.0685 ± 0.0043
353.16 K, 3000 kPa | 0.0731 ± 0.0042
353.16 K, 5000 kPa | 0.0846 ± 0.0042
353.16 K, 10000 kPa | 0.1035 ± 0.0044
353.16 K, 15000 kPa | 0.1189 ± 0.0046
353.16 K, 20000 kPa | 0.1314 ± 0.0048
353.16 K, 25000 kPa | 0.1424 ± 0.0049
353.16 K, 30000 kPa | 0.1527 ± 0.0051
363.16 K, 3081 kPa | 0.0521 ± 0.0043
363.16 K, 5000 kPa | 0.0732 ± 0.0042
363.16 K, 10000 kPa | 0.093 ± 0.0043
363.16 K, 15000 kPa | 0.109 ± 0.0045
363.16 K, 20000 kPa | 0.1211 ± 0.0047
363.16 K, 25000 kPa | 0.1322 ± 0.0048
363.16 K, 30000 kPa | 0.1429 ± 0.005
